Assays:
Type in all cases: cell-based, human
[1] = tested on: PBMC from grass pollen allergic patients; assay: Kinetics of IL-10 production by PBMC, ELISA
Description: (§1) FIG. 9. […] PBMC from grass pollen allergic patients (N=3) were cultured for 24 hours with or without a range of allergen concentrations (Phlp at […]), in the presence or absence of a range of INNA-001, INNA-006 or Pam2CSK4 concentrations (from 0.01 to 10 μg/mL). The culture supernatants were harvested and the levels of IL-10 (A) and IL-6 (B) were measured by ELISA. All data shown are mean±SEM.
(§2) FIG. 10. […] PBMC from grass pollen allergic patients (N=3) were cultured for 24 hours, 72 hours or 6 days, with or without allergen (Phlp 10 mg/mL), in the presence or absence of a range of INNA-001, INNA-006 or Pam3CSK4 concentrations (0.3, 3, 10 and 30 μg/mL). The culture supernatants were harvested and the levels of IL-10 were measured by ELISA. All data shown are mean±SEM.
(§3) PBMC from patients with allergy to Timothy grass pollen (Phleum pratense) or cat (Fel d 1) were cultured for 24 hours, 72 hours or 6 days, in the presence or absence of allergen and INNA-001, INNA-006 or Pam3CSK4 (a TLR2 agonist known to induce IL-10 production) and the production of IL-10 and IL-6 (used as a control, TLR2-induced cytokine) was measured in the cell culture supernatants.

[2] = tested on: PBMC from grass pollen allergic patients; assay: IL-6 production by PBMC at 24 hours, ELISA
Description: as §1, §3

[3] = tested on: PBMC from cat allergic patients; assay: IL-10 production by PBMC of cat allergic patients, ELISA; conditions: 24 hours, 72 hours, 6 days; cat allergen Feld 1
Description: as §2, with “11.” for “10.”, “cat” for “grass pollen”, “(Feld 1 0.1 or […]),” for “(Phlp 10 mg/mL),”, “Pam2CSK4” for “Pam3CSK4”, “Elisa.” for “ELISA. All data shown are mean±SEM.”
as §3

[4] = tested on: PBMC from grass pollen allergic patients; assay: Expansion of Th2 cell phenotypes on allergen stimulation, Flow Cytometry; conditions: in the presence of allergen; 6 days
Description: FIG. 3. Treatment with INNA-001 suppresses the expansion of pro-allergic Th2 cell phenotypes in response to allergen stimulation. PBMC from grass pollen allergic patients (N=12) were cultured for 6 days with or without allergen (Phlp at 10 μg/mL) and with or without a range of concentrations of INNA-001. After 6 days, the cells were harvested, washed and activated with phorbol 12-myristate 13-acetate (25 ng/mL) and ionomycin (1 μg/mL) for 5 hours. Brefeldin A (10 μg/mL) was added for the final 4 hours of stimulation. Subsequently the cells were washed and stained for anti-human CD4, CD27, CRTH2, CD49d, CD161, IL-13 and IL-4. Analysis was performed by Flow Cytometry. Proliferation of cells was measured using CellTrace violet. All data shown are mean±SEM. Graphs represent normalised changes from baseline (untreated). Statistical analysis was performed using ANOVA with Dunn's multiple comparisons test for within-group comparisons (*p<0.05, **p<0.01, ***p<0.001 for the +Phlp group).
FIG. 4. […]
PBMC from patients with allergy to Timothy grass pollen (Phleum pratense) were cultured for 6 days in the presence or absence of allergen and INNA-001 or control compounds. Allergen-induced proliferation and cytokine production were assessed and the phenotype of proliferating allergen-stimulated T cells was determined.

[5] = tested on: PBMC from grass pollen allergic patients; assay: IL-10 producing monocytes after 24 hours PBMC culture, Flow Cytometry
Description: FIG. 12. […] PBMC from grass pollen allergic patients were cultured for 24 hours with or without allergen (Phlp at 10 μg/mL) and with or without a range of concentrations of INNA-001 or Pam2CSK4 (0.3, 3 and 10 μg/mL). At 24 hours the cells were harvested, washed and stained for anti-human CD14, CD16 and IL-10. Analysis was performed by Flow Cytometry. A) Flow Cytometry representative plots (N=3) for percentage of IL-10-producing subpopulation of non-classical (CD14^low CD16^+) monocytes after treatment with […] of TLR2 agonists (INNA-001 or Pam2CSK4) in the presence of Phlp. B) Quantification (N=12) of IL-10 producing non-classical (CD14^low CD16^+) and C) Quantification (N=12) of IL-10 producing classical (CD14^highCD16^−) monocytes. All data shown are mean±SEM. Graphs represent changes from baseline (untreated). Statistical analysis was performed using ANOVA with Dunn's multiple comparisons test for within-group comparisons. Mann-Whitney U test was performed for between-group comparisons. Statistical significance in the +Phlp group: *p<0.05, **p<0.01, ***p<0.001.
FIG. 13. […] PBMC from grass pollen allergic patients (N=3) were cultured for 24 hours with or without allergen (Phlp at 10 μg/mL) and with or without a range of concentrations of INNA-001, INNA-003 or INNA-006 (0.3, 3, 10 and 30 μg/ml). At 24 hours the cells were harvested, washed and stained for anti-human CD14, CD16 and IL-10. Analysis was performed by Flow Cytometry. All data shown are mean±SEM.
To examine it, PBMC from patients with allergy to Timothy grass pollen (Phleum pratense) were cultured with INNA-001 or control TLR2 agonist compounds, in the presence or absence of allergen, for 24 hours. At 24 hours the cells were harvested, washed and stained for IL-10 and the monocyte markers CD16 and CD14, using relevant anti-human antibodies. Analysis of the monocyte populations (classical and non-classical monocytes) was performed by Flow Cytometry. Lymphoid cells were excluded using antibodies against lineage markers CD3, CD4, CD15, CD19, CD56.

[6] = tested on: PBMC from grass pollen allergic patients; assay: CD4+ T regulatory cell induction in PBMC, 6 days, Flow Cytometry / FlowSOM
Description: FIG. 14. […] PBMC from grass pollen allergic patients were cultured for 6 days with or without allergen (Phlp at 10 μg/mL) and with or without a range of concentrations of INNA-001 or Pam2CSK4 (0.3, 3 and […]). At day 6 the cells were harvested, washed and stained for anti-human CD4, CD25, CD127 and Foxp3. Analysis was performed by Flow Cytometry. All data shown are mean±SEM. Graphs represent changes from baseline (untreated). Statistical analysis was performed using ANOVA with Dunn's multiple comparisons test for within-group comparisons. Mann-Whitney U test was performed for between-group comparisons. Statistical significance in the +Phlp group: *p<0.05, **p<0.01, ***p<0.001.
FIG. 15. […] PBMC from grass pollen allergic patients were cultured for 6 days with or without allergen (Phlp at 10 μg/mL) and with or without a range of concentrations of INNA-001 or Pam2CSK4 (0.3, 3 and 10 μg/ml). At day 6 the cells were harvested, washed and stained for anti-human CD4, CD25, CD127, Foxp3 and CD45RO. Analysis was performed by Flow Cytometry. All data shown are mean±SEM. Graphs represent changes from baseline (untreated) (A) naive FoxP3^+CD25^+CD127^−CD4^+CD45RO^− cells, and (B) memory FoxP3^+CD25^+CD127^−CD4^+CD45RO^+ cells. Statistical analysis was performed using ANOVA with Dunn's multiple comparisons test for within-group comparisons. Mann-Whitney U test was performed for between-group comparisons. Statistical significance in the +Phlp group: *p<0.05, **p<0.01, ***p<0.001.
FIG. 16. […] PBMC from grass pollen allergic patients (N=3 for INNA=003 & INNA-006, N=7 for INNA-001 & Pam2CSK4) were cultured for 6 days with or without allergen (Phlp at 10 μg/mL) and with or without a range of concentrations of INNA-001, INNA-003, INNA-006 or Pam2CSK4 (0.3, 3 and 10 μg/mL). At day 6 the cells were harvested, washed and stained for anti-human CD4, CD25, CD127, Foxp3 and CD45RO. Analysis was performed by Flow Cytometry. All data shown are mean±SEM.
FIG. 17. […] PBMC from grass pollen allergic patients were cultured for 6 days with allergen (Phlp at 10 μg/mL) and with or without INNA-001 or Pam2CSK4 (3 μg/mL). At 6 days the cells were harvested, washed and stained for anti-human Foxp3, CD4, CD25, CD45RO, CD127, CTLA4 and SABT1. Analysis was performed by Flow Cytometry. The data were further analysed using unbiased FlowSOM technique. Foxp3^+ T regulatory cell metacluster identification following treatment with INNA-001 A) in the presence of Phlp (N=3) or B) absence of Phlp (N=3). C) Heatmap display of the marker expression profile of the identified metaclusters (N=3). D) Quantification of population abundance of the metaclusters 3, 5 and 9 following INNA-001 and Pam2CSK4 treatment in the presence of Phlp (N=3). […]

Substance: Pam3CSK4
- IL-10 generation at 24 hours ([1]; 24 hours, presence or absence of allergen): rapid, dose-dependent generation of IL-10
- IL-10 levels at 72 hours and 6 days ([1]; 72 hours, 6 days): remained high, but with declining levels
- influence of parallel allergen stimulation on IL-10 production ([1]; with versus without allergen): did not appear to considerably influence
- IL-6 generation at 24 hours [2]: strong IL-6 generation
- influence of parallel allergen stimulation on IL-6 production ([2]; with versus without allergen): did not appear to influence
- IL-10 upregulation in PBMC of cat allergic subjects [3]: stimulated dose-dependent upregulation of IL-10

Substance: Pam2CSK4
- number of proliferating IL-13 producing-Th2 (CD4+CD27-CRTH2+IL-13+) cells [4]: also reduced the number of proliferating Th2 (CD4+CD27−CRTH2+IL-13+) cells, but to a lesser degree than INNA-001
- number of IL-10+ non-classical CD14low/CD16+ monocytes ([5]; 24 hours): increase, although slightly less pronounced
- numbers of IL-10+ classical CD14high/CD16- monocytes ([5]; 24 hours): lower increase
- influence of allergen on IL-10+ classical monocytes ([5]; with versus without allergen): independent of the presence of allergen
- memory FoxP3+CD25+CD127-CD4+CD45RO+ T regulatory cells [6]: Analogous
- naive FoxP3+CD25+CD127-CD4+CD45RO- T regulatory cells [6]: Analogous
- total number of CD4+CD25+CD127- regulatory T cells [6]: Analogous results
- expansion of Foxp3+ T regulatory cell metaclusters MC3, MC5 and MC9 (FlowSOM) ([6]; 3 μg/mL): the same metaclusters were also found prominent

Source: patent US20240358822A1, “ALLERGY TREATMENT” (ENA RESPIRATORY PTY LTD, priority 2021, published 2024)
